# Test results: patent US10953015B2, “Use of adenosine receptor signaling to regulate P-gp function” (CORNELL UNIVERSITY, priority 2016, dated 2021)
# How the values were obtained:
# [1] = tested on: P-gp; test: P-gp expression in brain of WT mice (western blot, IFA of frozen section); assay type: in vivo, mouse
# Description: HCMEC-D3 and HBMVEC cells were plated in 12-well plates and were grown until they reached 100% confluency. The media was replaced with fresh media containing 1 μM of Lexiscan® or NECA with proper vehicle control (DMSO) for up to 72 hours. Cells were lysed by lysis buffer […] containing protease inhibitor cocktail and stored for later use (−70° C.). For cytoskeletal fraction analysis, cells were lysed in CSK buffer (100 mM NaCl, 300 mM sucrose, 3 mM MgCl2, 10 mM PIPES, pH 6.8). For brain samples, half of the brain was homogenized and lysed with […] lysis buffer and centrifuged at 17,000 g for 20 minutes and 1:10 diluted samples were used for analysis. Sample was loaded on 7% SDS PAGE at 100 V for 1 hour and transferred to the nitrocellulose paper. It was blocked with 1% BSA and incubated with anti-P-gp antibody (Genetex, 1:2000) overnight. Subsequently, it was washed with TBST and incubated with anti-rabbit secondary antibody (1:2000) for 1 hour. It was washed with TBST and developed with ECL substrate and exposed to x-ray film. Anti-GAPDH or −β-actin antibody was used as loading control. The intensity of band was analyzed with densitometric analysis and plotted as a graph for analysis of time-course effect of AR signaling on P-gp expression.
# Mice were treated with Lexiscan® or NECA at different time points and were infused with ice-cold PBS and sacrificed. Half of the brain was cut and put in the cassette and filled with OCT solution. Samples were snap-frozen with liquid nitrogen, cut with cryostat (10 μm) and fixed with acetone for 5 minutes, and incubated with C219 for P-gp stain (1:100) and Glut1 for endothelial cell marker (1:100) at 4° C. overnight. Sections were washed with PBS and additionally stained with secondary antibody conjugated with fluorochrome. Full images of the brain sections were visualized and recorded using Aperio Scan Scope (Leica Biosystems).
# [2] = tested on: P-gp; test: Western blot of P-gp expression in MCF7 breast cancer cells; assay type: cell-based, human; details: 1 μM, 24, 48, 72 hours
# Description: MCF7 cells (human breast cancer cell line) were cultured in 24 well plates until they reached confluency. FIGS. 17A-17C are images of western blots of cells treated with vehicle control (i.e., DMSO) (“D”) or 1 μM of the broad spectrum AR agonist NECA (“N”) (FIG. 17A), 1 μM of the A2A AR agonist Lexiscan® (“L”) (FIG. 17B), or 1 μM of the A2B AR agonist BAY60 (“B”) (FIG. 17C), respectively for 24, 48, 72 hours. Cells were lysed with lysis buffer and expression levels of P-gp, MMP9, or VEGF analyzed by western blot. GAPDH was used as loading a control. FIG. 17D is a graph of experimental results showing that Lexiscan® down-regulates P-gp expression in MCF7 breast cancer cells. MCF7 breast cancer cells were treated with Lex (0.25 μM) concomitant with Rhodamine 123 (“Rho123”). […] Students T test, P<0.001. […] FIG. 17E is a fluorescence microscopy image showing MCF7 breast cancer cells grown on coverslips and treated with vehicle (DMSO, control), or A2 AR agonists, Lexiscan® (1 μM) or A1193 (1 μM) for 15 minutes in the presence of epirubicin. Cells were stained with an antibody to P-gp and mounted with DAPI. FIG. 17F is a graph of the fluorescent intensity quantified from FIG. 17E by measuring the mean fluorescent intensity (“MFI”) of epirubicin (pink) that is present in cell nuclei. ***=P<0.0001.
# [3] = cited from earlier work
# [4] = tested on: P-gp; test: Microscopic (IFA) analysis of Rho123 uptake in primary human brain endothelial cells; assay type: cell-based; details: 2.5 μM Rho123, 1 μM agonist, 15 minutes to 24 hours
# Description: Human brain endothelial cells and primary brain endothelial cells were plated onto 48-well plates until 100% confluence was reached, and media were replaced with fresh media containing Rho123 (2.5 μM) with different concentrations of Lexiscan®, NECA, or PSC833. Reaction was halted by adding 250 μl of ice-cold PBS. Plate was washed with 250 μl of ice-cold PBS 3 times and lysed with lysis buffer. Each sample was analyzed using Synergy Fluometer (Biotek), with excitation at 488 nm and emission at 523 nm. Concentration of Rho123 was analyzed using standard curve created by serial dilution of Rho123. Final concentration of Rho123 was normalized using protein concentration of lysate measured using Bradford assay (Bio-Rad). For microscopic analysis of Rho123 uptake, cells were cultured on coverslip and Rho123 was treated with or without Lexiscan® or NECA with DMSO as control. Reaction was terminated by adding ice-cold PBS and washed with ice-cold PBS 3 times. Cells were fixed with PFA and costained with anti-human P-gp. Cells were visualized with a Zeiss fluorescent microscope and captured with axiovision software. FIG. 4G is a schematic illustration of the Rho123 uptake assay.
# [5] = tested on: P-gp; test: P-gp expression in intestinal organoids (mean fluorescence intensity); assay type: cell-based; details: organoids from C57BL6 mouse intestine; 1 μM; 15 minutes
# Description: Freshly isolated intestines from wildtype […] mice were cultured and grown to confluency to generate Organoids, which are 3D organotypic cultures derived from primary intestinal tissues (either tissue subunits or single cells), embryonic stem cells (“ESCs”), and induced pluripotent stem cells (“iPSCs”). Organoids were treated with 1 μM Lexiscan® or A1193 (A2A AR agonist) for 15 minutes, washed, and stained with antibodies to P-gp and DAPI. Mean fluorescent intensity was measured in each organoid. Data presented as a measure of P-gp expression between the two agonists. *=significance where P<0.05.
# Applicants next evaluated whether A2A AR agonists can modulate P-gp expression in gut epithelial cells. Freshly isolated intestines from wildtype C57BL6 mice were cultured and grown to confluency to generate Organoids, which are three-dimensional organotypic cultures derived from primary intestinal tissues (either tissue subunits or single cells), embryonic stem cells (“ESCs”), or induced pluripotent stem cells (“iPSCs”). Organoids were treated with the A2A AR agonists Lexiscan® or A1193 for 15 minutes, washed, and stained with antibodies to P-gp and DAPI.
SMILES,P-gp expression level in brain ([1]; 2 and 18 hours after NECA),P-gp expression (western blot) [2],half-life [3] [h],Rho123 accumulation visualized by IFA [4],Time at which effect on P-gp occurred [1] [min],"P-gp expression in brain endothelial cells ([1]; Lexiscan® treatment, 5 to 60 minutes)",P-gp expression (mean fluorescent intensity) [5]
"CCNC(=O)[C@H]1O[C@@H](n2cnc3c(N)ncnc32)[C@H](O)[C@@H]1O [NECA, (2S,3S,4R,5R)-5-(6-aminopurin-9-yl)-N-ethyl-3,4-dihydroxyoxolane-2-carboxamide]","gradual decrease in P-gp expression level, beginning at 2 hours; this was maintained for up to 18 hours",decreased P-gp expression in cultured MCF7 cells at 48 and 72 hour time points,5,"increased Rho123 accumulation at later time points, beginning at 4 hours; this was maintained for up to 24 hours",–,–,–
"CNC(=O)c1cnn(-c2nc(N)c3ncn([C@@H]4O[C@H](CO)[C@@H](O)[C@H]4O)c3n2)c1 [Lexiscan®, 1-[6-amino-9-[(2R,3R,4S,5R)-3,4-dihydroxy-5-(hydroxymethyl)oxolan-2-yl]purin-2-yl]-N-methylpyrazole-4-carboxamide]",–,decreased P-gp expression in cultured MCF7 cells at 48 and 72 hour time points,–,increased the accumulation of Rho123 beginning at 15 minutes to 1 hour,≤ 5,decreased P-gp expression in brain endothelial cells in WT mice between 5 and 15 minutes; this was recovered by 30 minutes,significantly down-regulates P-gp expression in freshly isolated and cultured colonic organoids
